Data set [1] deals with T1, Adrenergic receptor alpha-1 (Rattus norvegicus, UniProt P15823+P23944+P43140).
T1 sequence (P15823 whole entry): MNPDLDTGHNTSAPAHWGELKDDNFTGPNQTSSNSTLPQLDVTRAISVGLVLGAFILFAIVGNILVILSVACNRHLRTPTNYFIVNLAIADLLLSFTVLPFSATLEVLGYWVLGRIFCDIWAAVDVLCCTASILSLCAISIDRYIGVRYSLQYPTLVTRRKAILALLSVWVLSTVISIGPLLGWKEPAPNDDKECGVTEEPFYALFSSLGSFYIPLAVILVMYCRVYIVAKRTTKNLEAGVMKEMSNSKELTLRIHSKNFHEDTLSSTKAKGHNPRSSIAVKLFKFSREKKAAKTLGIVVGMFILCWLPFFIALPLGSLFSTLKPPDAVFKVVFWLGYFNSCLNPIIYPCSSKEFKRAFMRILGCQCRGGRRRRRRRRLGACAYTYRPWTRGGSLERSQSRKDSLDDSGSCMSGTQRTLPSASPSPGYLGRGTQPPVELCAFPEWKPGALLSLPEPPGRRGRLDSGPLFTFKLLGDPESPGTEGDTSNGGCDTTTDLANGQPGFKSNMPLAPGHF
T1 sequence (P23944 whole entry): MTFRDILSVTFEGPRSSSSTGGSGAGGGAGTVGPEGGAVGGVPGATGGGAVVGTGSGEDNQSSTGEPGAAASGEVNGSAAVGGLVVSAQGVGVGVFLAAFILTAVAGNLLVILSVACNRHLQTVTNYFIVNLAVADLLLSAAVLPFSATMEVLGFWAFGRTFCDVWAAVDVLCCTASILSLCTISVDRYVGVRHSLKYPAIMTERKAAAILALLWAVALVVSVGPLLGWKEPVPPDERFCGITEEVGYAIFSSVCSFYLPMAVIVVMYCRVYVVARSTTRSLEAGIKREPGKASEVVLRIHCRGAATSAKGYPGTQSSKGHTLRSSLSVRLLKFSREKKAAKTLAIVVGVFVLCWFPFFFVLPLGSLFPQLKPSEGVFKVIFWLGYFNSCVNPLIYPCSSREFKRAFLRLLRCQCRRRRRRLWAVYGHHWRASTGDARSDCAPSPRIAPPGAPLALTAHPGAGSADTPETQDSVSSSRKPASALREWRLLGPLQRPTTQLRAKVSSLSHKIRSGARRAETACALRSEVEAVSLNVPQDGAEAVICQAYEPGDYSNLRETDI
T1 sequence (P43140 whole entry): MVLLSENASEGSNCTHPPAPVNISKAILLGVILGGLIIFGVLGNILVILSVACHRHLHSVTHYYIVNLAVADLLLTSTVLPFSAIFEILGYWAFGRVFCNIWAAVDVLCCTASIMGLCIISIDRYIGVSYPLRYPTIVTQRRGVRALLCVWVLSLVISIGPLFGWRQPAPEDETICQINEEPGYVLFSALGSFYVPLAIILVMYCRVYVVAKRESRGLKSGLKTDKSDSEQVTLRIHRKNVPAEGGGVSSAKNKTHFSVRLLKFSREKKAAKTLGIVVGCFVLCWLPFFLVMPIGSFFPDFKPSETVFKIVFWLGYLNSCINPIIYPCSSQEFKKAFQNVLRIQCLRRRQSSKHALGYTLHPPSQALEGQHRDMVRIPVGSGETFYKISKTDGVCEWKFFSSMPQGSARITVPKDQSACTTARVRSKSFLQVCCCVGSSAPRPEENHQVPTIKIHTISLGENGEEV
Put plainly: Displacement of [3H]prazosin from alpha1 adrenergic receptor in rat cortex membranes measured after 30 mins by Microbeta2 scintillation counting method. Type of data set: cell membranes. In general terms: Loss of bound radioactivity is the signal in a displacement assay; it reports binding, not function.

Data set [2] is described as follows: Hepatotoxicity in human HepG2 cells assessed as concentration required to show 50% cell viability measured after 72 hrs by celltiter 96 aqueous non-Radioactive cell proliferation assay. It is filed as toxicity, cell-based. The settings on record: read-out: Activity.
Data set [3] deals with T2, 5-hydroxytryptamine receptor 1A (Homo sapiens, UniProt P08908).
T2 sequence (P08908 whole entry): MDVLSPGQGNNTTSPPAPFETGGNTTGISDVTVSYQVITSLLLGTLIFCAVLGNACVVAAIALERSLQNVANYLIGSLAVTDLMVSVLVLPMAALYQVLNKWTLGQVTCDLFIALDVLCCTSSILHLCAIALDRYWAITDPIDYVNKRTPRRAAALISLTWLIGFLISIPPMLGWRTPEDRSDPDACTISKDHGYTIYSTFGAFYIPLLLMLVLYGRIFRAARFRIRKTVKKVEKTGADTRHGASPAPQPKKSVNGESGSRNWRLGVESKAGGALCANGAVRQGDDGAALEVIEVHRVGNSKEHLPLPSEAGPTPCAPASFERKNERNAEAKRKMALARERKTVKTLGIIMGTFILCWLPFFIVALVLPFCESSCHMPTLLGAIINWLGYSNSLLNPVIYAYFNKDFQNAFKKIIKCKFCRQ
Put plainly: Biased agonist activity at human 5-HT1A receptor stably expressed in CHO-K1 cells assessed as inhibition of forskolin-induced cAMP accumulation after 40 mins by LANCE Ultra cAMP kit-based TR-FRET assay. It is filed as functional, cell-based. For orientation: Cyclic AMP is a second messenger, typically raised through Gs and lowered through Gi signalling.

For data set [4], the target named is T2, 5-hydroxytryptamine receptor 1A. Briefly: Biased agonist activity at human 5-HT1A receptor stably expressed in CHO-K1 cells co-expressing Galpha16/GPCR assessed as increase in calcium mobilization measured for 30 secs in presence of coelenterazine by aequorin-reporter gene based luminescence assay. Type of data set: functional, cell-based. On the technique in general: Calcium assays in cells follow changes in intracellular calcium, usually with a dye or a luminescent sensor.

Data set [5] deals with D(2) dopamine receptor (Homo sapiens, UniProt P14416). Put plainly: Displacement of [3H]methylspiperone from human D2 receptor stably expressed in CHO-K1 cell membranes measured after 60 mins by Microbeta2 scintillation counting method.
D(2) dopamine receptor, sequence (P14416 whole entry): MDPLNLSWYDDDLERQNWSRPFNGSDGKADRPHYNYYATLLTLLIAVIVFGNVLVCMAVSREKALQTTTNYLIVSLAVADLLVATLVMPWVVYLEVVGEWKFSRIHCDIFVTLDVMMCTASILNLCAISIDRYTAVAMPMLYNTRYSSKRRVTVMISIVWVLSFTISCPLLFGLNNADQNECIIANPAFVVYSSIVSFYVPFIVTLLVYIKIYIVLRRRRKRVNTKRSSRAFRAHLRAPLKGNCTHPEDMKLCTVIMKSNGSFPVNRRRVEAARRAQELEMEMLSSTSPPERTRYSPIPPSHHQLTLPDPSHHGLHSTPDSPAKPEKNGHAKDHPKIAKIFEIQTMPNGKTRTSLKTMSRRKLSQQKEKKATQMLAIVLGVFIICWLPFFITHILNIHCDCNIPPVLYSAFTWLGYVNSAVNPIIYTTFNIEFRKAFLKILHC
The target in data set [6] is T2, 5-hydroxytryptamine receptor 1A. Briefly: Biased agonist activity at human 5-HT1A receptor stably expressed in CHO-K1 cells assessed as increase in ERK1/2 phosphorylation after 15 mins by Alphalisa assay.
Data set [7] shares this target. Put plainly: Displacement of [3H]8-OH-DPAT from human 5-HT1A receptor stably expressed in CHO-K1 cell membranes measured after 60 mins by Microbeta2 scintillation counting method.
Data set [8] has the same target. Briefly: Biased agonist activity at Gal4-VP16 transcription factor linked human 5-HT1A receptor expressed in human U2OS cells assessed as induction of beta-arrestin2 recruitment measured after 5 hrs by Tango assay. Type of data set: cell-based.
Data set [9] in a line: Drug uptake in Wistar rat brain at 0.31 to 1.25 mg/kg, po by HPLC analysis. It is filed as ADME, organism-based. To be noted: in vivo, dose 0.31-1.25 mg/kg.
Data set [10] can be described thus: Permeability of the compound at 100 uM measured after 40 mins by PAMPA. Type of data set: ADME. The settings on record: read-out: permeability.
Data set [11] relates to Rattus norvegicus. Put plainly: Antidepressant activity in Wistar rat assessed as reduction in immobility time at […], po treated 60 mins prior to testing and measured during the 5 min test period in presence of WAY100635 by Porsolt-forced swim test. Type of data set: functional, organism-based.
Data set [12] relates to Rattus norvegicus. Briefly: Antidepressant activity in po dosed Wistar rat assessed as reduction in immobility time treated 60 mins prior to testing and measured during the 5 min test period by Porsolt-forced swim test. Type of data set: functional. To be noted: 1 h, read-out: MED.
Data set [13] is described as follows: Toxicity in po dosed Wistar rat assessed as induction of lower lip retraction at 2 times MED treated for 10 mins. The settings on record: in vivo. Type of data set: organism-based.
Data set [14] in a line: Drug uptake in Wistar rat serum at 0.31 to 1.25 mg/kg, po by HPLC analysis. Type of data set: ADME, organism-based. To be noted: in vivo, dose 0.31-1.25 mg/kg.
Data set [15] can be described thus: Stability in rat liver microsomes assessed as parent compound remaining at 50 uM preincubated for 5 mins followed by NADPH addition and measured after 2 hrs by LC-MS analysis. To be noted: time 125 min, read-out: Stabilty. Type of data set: ADME, Microsome.
Data set [16] in a line: Drug uptake in Wistar rat serum at 0.04 to […], po by HPLC analysis. The settings on record: in vivo, dose 0.04-0.63 mg/kg. Type of data set: ADME, organism-based.
Data set [17] in a line: Drug uptake in Wistar rat brain at 0.04 to […], po by HPLC analysis. The settings on record: in vivo, dose 0.04-0.63 mg/kg. Type of data set: ADME, organism-based.
The nature of data set [18]: Toxicity in po dosed Wistar rat assessed as induction of lower lip retraction at 4 times MED treated for 10 mins. To be noted: in vivo. Type of data set: organism-based.

Active and inactive are the calls of the source. The rule behind the calls is not given here. Bounds are passed on as bounds.

As a reminder, the pKi is the negative decadic logarithm of the Ki, by convention in mol/L. Higher therefore signals a small Ki. For `COc1ccc(OCCNCC2(F)CCN(C(=O)c3ccc(Cl)c(Cl)c3)CC2)cc1`, in data set [1], the negative-log Ki (pKi) is < 6.

Consider `CC1(C)Cc2cccc(OCCNCC3(F)CCN(C(=O)c4ccc(F)c(Cl)c4)CC3)c2O1`, for which the pKi in data set [1] is 7.76.

As to `COc1cccc2c1C(=O)c1c(O)c3c(c(O)c1C2=O)C[C@@](O)(C(=O)CO)C[C@@H]3O[C@H]1C[C@H](N)[C@H](O)[C@H](C)O1` [DOXORUBICIN], the CC50 at 72 h in data set [2] was < 1000 nM.

As to `CC(=O)Nc1cccc(OCCNCC2(F)CCN(C(=O)c3ccc(Cl)c(Cl)c3)CC2)c1`, the pKi in [1] is listed as < 6.

Turning to `O=C(c1ccc(F)c(Cl)c1)N1CCC(F)(CNCCOc2ccccc2F)CC1`, the negative logarithm of the Ki (pKi) in data set [1] is < 6.

For orientation: EC50 means the concentration needed to bring the measured effect to its halfway point. As usually defined, the Ki is a dissociation constant, usually derived from enzyme kinetics or from competition with a known ligand. For the compound `O=C(c1ccc(Cl)c(Cl)c1)N1CCC(F)(CNCCOc2cccc(F)c2)CC1`, the concentration giving a half-maximal response (EC50) is 39.8 nM in data set [3], 646 nM in data set [4], 20 nM in [6] and 617 nM in data set [8]. For the same compound, the inhibitory constant (Ki) in [5] is > 1000 nM; in data set [7], 0.0204 nM. Also, in data set [1], the pKi is listed as 6.2.

Consider `Cc1cnc(CNCC2(F)CCN(C(=O)c3ccc(F)c(Cl)c3)CC2)nc1`, for which, in data set [4], the 50% effective concentration (EC50) is 302 nM. For the same compound, the pKi in [1] is < 6.

On to `O=C(c1ccc(F)c(Cl)c1)N1CCC(F)(CNCCOc2cccc3[nH]ccc23)CC1`, for which the Drug uptake entry in data set [9] and in data set [14] was “Active” each time. Besides, the Papp at 40 min, 100 µM in [10] came out at 4.7 ×10⁻⁶ cm/s. Moreover, the outcome in data set [11] was inactive. Also, in data set [12], the minimal effective dose worked out at 0.63 mg/kg. Besides, in data set [13], the Activity entry is reported as “Toxic”. The CC50 at 72 h in data set [2] was > 50000 nM.

Regarding `CC(=O)Nc1cccc(OCCNCC2(F)CCN(C(=O)c3ccc(F)c(Cl)c3)CC2)c1`, in [15], the remaining at 2 h, 50 µM amounted to 73%.

On to `O=C(c1ccc(F)c(Cl)c1)N1CCC(F)(CNCCOc2cccc3cccnc23)CC1`, for which the remaining at 2 h, 50 µM in data set [15] worked out at 73%.

For the compound `CN(C)c1cccc(OCCNCC2(F)CCN(C(=O)c3ccc(F)c(Cl)c3)CC2)c1`, in data set [1], the negative-log Ki (pKi) is recorded as < 6.

Consider `O=C(c1ccc(Cl)c(Cl)c1)N1CCC(F)(CNCCOc2cccc(Cl)c2)CC1`, for which the inhibition constant Ki is > 1000 nM in data set [5] and 0.0251 nM in data set [7]. In [1], the negative-log Ki (pKi) is < 6.

On to `O=C(c1ccc(F)c(Cl)c1)N1CCC(F)(CNCCOc2cccc3c2CCN3)CC1`, for which the EC50 in data set [3] was 0.0132 nM; in data set [4] it was 3.55 nM; in data set [6] it was 0.00363 nM; in data set [8], 0.00513 nM. For the same compound, the Ki is > 1000 nM in [5] and 0.0447 nM in data set [7]. In data set [1], this compound gave a pKi of 6.36.

As to `CNc1ccccc1OCCNCC1(F)CCN(C(=O)c2ccc(F)c(Cl)c2)CC1`, the Drug uptake result in data set [16] and in data set [17] was “Active” throughout. Also, in data set [15], the remaining at 2 h, 50 µM stood at 54%. Further, in data set [10], the Papp at 40 min, 100 µM came to 6.7 ×10⁻⁶ cm/s. The Activity entry in [18] is reported as “Non-Toxic”. Also, in data set [12], the minimal effective dose turned out to be 0.16 mg/kg. In data set [1], this compound displayed a pKi of 6.04.

On to `O=C(c1ccc(F)c(Cl)c1)N1CCC(F)(CNCCOc2ccccc2)CC1`, for which the remaining at 2 h, 50 µM in data set [15] turned out to be 54%. In data set [10], the Papp at 40 min, 100 µM is 8.6 ×10⁻⁶ cm/s. Also, in [2], the CC50 at 72 h is > 50000 nM.

With `O=C(c1ccc(F)c(Cl)c1)N1CCC(F)(CNCCOc2cccc(C(F)(F)F)c2)CC1`, the pKi in [1] is given as < 6.

On to `N#CC(C#N)=NNc1cccc(Cl)c1` [CARBONYL CYANIDE M-CHLOROPHENYLHYDRAZONE], for which, in [2], the CC50 at 72 h is < 10000 nM.

Consider `O=C(c1ccc(F)c(Cl)c1)N1CCC(F)(CNCCOc2ccccc2Cl)CC1`, for which, in [1], the negative-log Ki (pKi) is given as < 6.

For the compound `O=C(c1ccc(F)c(Cl)c1)N1CCC(F)(CNCCOc2ccccn2)CC1`, the remaining at 2 h, 50 µM in data set [15] worked out at 54%.

Values taken from ChEMBL document CHEMBL4665789, “Discovery of Novel pERK1/2- or β-Arrestin-Preferring 5-HT Receptor-Biased Agonists: Diversified Therapeutic-like versus Side Effect Profile” (J Med Chem, 2020).
